Where two headings read alike, the source gives them in different places. *1 amine or outer side, *2 acyl side, *3 side chain or, on linkers, in order; H or OH if unused. Where a SMILES comes first, the peptide text is derived from it. The star is where a group is joined. X1 = CCC(C(=O)Nc1sc(C(=O)*)c(C)c1C(=O)OC)c1ccc(C(F)(F)F)cc1; Ethylenediamine = C(CN[*:2])N[*:1]; Boc = CC(C)(C)OC(=O)*
Columns and labels:
mD4 [1] = biological target: T1, mD4 (Molluscum contagiosum virus, UniProt Q98260); assay: mD4 dependent processive DNA synthesis in vitro (mD4 anti-processivity); type: biochemical
[2] = 3-Day Cell Viability Assay (cytotoxicity)
mD4 (mD4+A20+Pol) = mD4 (mD4+A20+Pol) (Molluscum contagiosum virus subtype 1, UniProt Q98260); assay: biochemical
mD4 [3] = biological target: T1, mD4; assay: Micro-Scale Thermophoresis binding to mD4; conditions: microscale thermophoresis
[4] = Table 2, read-out: IC50 (μM), mD4 anti-processivity activity

T1 sequence (Q98260 1-226): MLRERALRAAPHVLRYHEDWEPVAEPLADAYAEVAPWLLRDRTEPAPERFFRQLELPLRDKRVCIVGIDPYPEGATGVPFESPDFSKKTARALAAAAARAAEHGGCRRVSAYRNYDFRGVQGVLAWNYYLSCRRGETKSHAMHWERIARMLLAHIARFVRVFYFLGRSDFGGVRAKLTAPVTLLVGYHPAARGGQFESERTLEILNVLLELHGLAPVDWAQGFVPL
Chain of mD4 (mD4+A20+Pol) (Q98260 1-226): as above

Row | Compound | IC50 (mD4 [1]; [4]) | IC50 (mD4 (mD4+A20+Pol)) | other results
1 | CCC(C(=O)Nc1sc(C(=O)NCCNC(=O)[C@@H](NC(=O)[C@@H](NC(=O)OC(C)(C)C)C(C)C)C(C)C)c(C)c1C(=O)OC)c1ccc(F)cc1 (stereo partly drawn) [Compound 5, Methyl 5-(((6S,9S)-6,9-diisopropyl-2,2-dimethyl-4,7,10-trioxo-3-oxa-5,8,11-triazatridecan-13-yl)carbamoyl)-2-(2-(4-fluorophenyl)butanamido)-4-methylthiophene-3-carboxylate] | 20 µM |  | 
2 | CCC(C(=O)Nc1sc(C(=O)NCCNC(=O)[C@@H](NC(=O)[C@@H](NC(=O)[C@@H](NC(=O)OC(C)(C)C)C(C)C)C(C)C)C(C)C)c(C)c1C(=O)OC)c1ccc(F)cc1 (stereo partly drawn) [Compound 8, Methyl 2-(2-(4-fluorophenyl)butanamido)-4-methyl-S-(((6S,9S,12S)-6,9,12-triisopropyl-2,2-dimethyl-4,7,10,13-tetraoxo-3-oxa-5,8,11,14-tetraazahexadecan-16-yl)carbamoyl)thiophene-3-carboxylate] | 10.7 µM |  | 
3 | CCC(C(=O)Nc1sc(C(=O)NCCNC(=O)[C@@H](NC(=O)[C@@H](NC(=O)[C@@H](N)C(C)C)C(C)C)C(C)C)c(C)c1C(=O)OC)c1ccc(F)cc1 (stereo partly drawn) [Compound 9, Methyl 5-((2-((S)-2-((S)-2-((S)-2-amino-3-methylbutanamido)-3-methylbutanamido)-3-methylbutanamido)ethyl)carbamoyl)-2-(2-(4-fluorophenyl)butanamido)-4-methylthiophene-3-carboxylate] |  | 5.6 µM | IC50 (mD4 [1]; read-out: IC50, mD4 dependent processive DNA synthesis in vitro): 5 µM; CC50 at 3 day [2]: > 100 µM; cytotoxicity, result in words ([2]; cell viability assay or seen when evaluated in mD4-VV infection): no measurable cytotoxicity; Kd (mD4 [3]): 2.84 µM
4 | CCC(C(=O)Nc1sc(C(=O)NCCNC(=O)[C@H](NC(=O)[C@H](NC(=O)[C@H](N)C(C)C)C(C)C)C(C)C)c(C)c1C(=O)OC)c1ccc(F)cc1 (stereo partly drawn) [Compound 20, Methyl 5-((2-((R)-2-((R)-2-((R)-2-amino-3-methylbutanamido)-3-methylbutanamido)-3-methylbutanamido)ethyl)carbamoyl)-2-(2-(4-fluorophenyl)butanamido)-4-methylthiophene-3-carboxylate] | 3 µM |  | 
5 | CCC(C(=O)Nc1sc(C(=O)NCCNC(=O)[C@@H](NC(=O)[C@@H](NC(=O)[C@@H](NC(=O)[C@@H](NC(=O)OC(C)(C)C)C(C)C)C(C)C)C(C)C)C(C)C)c(C)c1C(=O)OC)c1ccc(C(F)(F)F)cc1 (stereo partly drawn) [Compound 26, Methyl 4-methyl-5-(((6S,9S,12S,15S)-6,9,12,15-tetraisopropyl-2,2-dimethyl-4,7,10,13,16-pentaoxo-3-oxa-5,8,11,14,17-pentaazanonadecan-19-yl)carbamoyl)-2-(2-(4-(trifluoromethyl)phenyl)butanamido)thiophene-3-carboxylate] (Boc-VVVV-{Ethylenediamine-X1}) | 4.1 µM |  | 
6 | CC(C)[C@H](N)C(=O)N[C@H](C(=O)N[C@H](C(=O)O)C(C)C)C(C)C [TriVal-Peptide Control, ((L)-Val)3, reference compound] (H-Val-Val-Val-OH) |  | > 100 µM | 

Source: patent US20250332276A1, “Inhibitors of Molluscum Contagiosum Infection and Methods Using the Same” (priority 2022, published 2025)
